Source: patent publication US10821126B2, “Agent for treating retinopathy” (CARNA HEALTH SUPPORT LTD., priority 2016, dated 2020)
Values joined by “and” are separate entries in the source; they are usually repeats but may differ in a detail not shown here. Equal values may be shown once.

Tests used:
[1] = biological target: T1, SGLT2 (Homo sapiens, UniProt P31639); conditions: cited from earlier work
T1 sequence (P31639 1-672): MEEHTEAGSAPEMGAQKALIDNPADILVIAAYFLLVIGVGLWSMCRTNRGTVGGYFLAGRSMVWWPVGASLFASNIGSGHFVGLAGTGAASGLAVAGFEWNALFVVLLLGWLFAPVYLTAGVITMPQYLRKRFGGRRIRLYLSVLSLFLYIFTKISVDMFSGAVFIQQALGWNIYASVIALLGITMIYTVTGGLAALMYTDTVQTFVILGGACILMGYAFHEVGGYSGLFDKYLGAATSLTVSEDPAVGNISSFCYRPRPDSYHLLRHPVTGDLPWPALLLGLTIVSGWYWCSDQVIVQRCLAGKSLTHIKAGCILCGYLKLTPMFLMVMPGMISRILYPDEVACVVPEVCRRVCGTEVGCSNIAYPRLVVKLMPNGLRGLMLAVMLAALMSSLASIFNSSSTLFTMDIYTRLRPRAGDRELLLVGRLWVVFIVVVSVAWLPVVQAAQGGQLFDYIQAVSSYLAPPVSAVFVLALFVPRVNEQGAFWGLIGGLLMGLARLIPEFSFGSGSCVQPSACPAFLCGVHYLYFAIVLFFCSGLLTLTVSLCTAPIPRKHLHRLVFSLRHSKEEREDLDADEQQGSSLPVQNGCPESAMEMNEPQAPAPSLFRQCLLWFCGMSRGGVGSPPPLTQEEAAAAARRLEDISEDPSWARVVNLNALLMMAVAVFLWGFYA

[2] = authorized minimum dosage amount; cited from earlier work
[3] = tested on: increase of retinal vascular permeability in db/db mouse; assay: Retinal vascular permeability (retinal albumin amount by western blot) in spontaneous type 2 diabetes model db/db mouse; type: in vivo; conditions: oral
Experimental: Subsequently, the amelioration effect on diabetic retinal function (amelioration effect on permeability increase which is a representative abnormality of diabetic retinal vessels) by the therapeutic agent of the present invention (existing SGLT2 inhibitor agent) was confirmed by using spontaneous type 2 diabetes model db/db mouse.
Since 8 weeks after birth of spontaneous type 2 diabetes model db/db mouse, a dosage amount (10 mg/kg/day as luseogliflozin) of luseogliflozin hydrate which is an existing SGLT2 inhibitor agent, with which an antihyperglycemic action is confirmed in mouse was orally administered. Two weeks after administration of SGLT2 inhibitor agent, the mouse was euthanized, and all blood vessels were sufficiently refluxed with 10 ml of phosphate buffer solution (PBS), and the eyeballs were extracted. After isolating retina, the albumin amount in the retinal tissues leaked from the blood vessels was measured by western blott method, to assess the vascular permeability increase. The albumin amount in retina was corrected with […], and is shown by % control by using control db/+ mouse as a standard.
Next, similarly as for luseogliflozin, the function improvement on increase of retinal vascular permeability was assessed using canagliflozin. Canagliflozin hydrate which is an existing SGLT2 inhibitor agent was orally administered for 2 weeks, at a dosage amount (3 mg/kg/day as canagliflozin) with which an antihyperglycemic action is confirmed in mouse, and at a low dosage (0.01 mg/kg/day as canagliflozin) not showing an antihyperglycemic action.

[4] = tested on: diabetic retinopathy having macular edema; assay: Cases of diabetic retinopathy having macular edema, assessed by optical coherence tomography (OCT), HbA1c and vision; type: in vivo, human
Experimental: To four cases of diabetic retinopathy having macular edema to which conventional intraocular injection of steroid or anti-VEGF antibody was not effective, the therapeutic agent of the present invention (existing SGLT2 inhibitor) was administered at a normal dosage amount or at a lower dosage amount, and the effect was confirmed. Specifically, for the three cases using dapagliflozin and one case using canagliflozin, the effect was confirmed by assessment using optical coherence tomography (OCT). Person; suffering from type 2 diabetes, accompanied with proliferative retinopathy in both eyes, and macular edema in both eyes. Steroid sub-tenon injection was frequently performed but was treatment-resistant. […], person; suffering from type 2 diabetes, accompanied with proliferative retinopathy in both eyes, and macular edema in both eyes. Steroid sub-tenon injection was performed but was treatment-resistant. […], person; suffering from type 2 diabetes, accompanied with simple diabetic retinopathy in both eyes, and macular edema in right eye. […], person; suffering from type 2 diabetes, accompanied with preproliferative diabetic retinopathy in both eyes, and macular edema in right eye. Steroid intraocular injection was performed to right eye macular edema, but was resistant.

[5] = tested on: spontaneous type 2 diabetes model db/db mouse; assay: Effects on body weight, feed intake, urine volume and blood sugar in db/db mouse; type: in vivo; conditions: oral, 2 weeks
Experimental: The above-mentioned low dosage (0.01 mg/kg/day as canagliflozin) not showing an antihyperglycemic action was confirmed by the following method.
[…] Effects on body weight, feed intake, urine volume and blood sugar were confirmed.
FIGS. 6 and 7 show the results of fructosamine level which is an index for fasting blood sugar and average blood sugar levels when administering 3 mg/kg/day and 0.01 mg/kg/day of canagliflozin hydrate.

## CCOc1ccc(Cc2cc([C@@H]3S[C@H](CO)[C@@H](O)[C@H](O)[C@H]3O)c(OC)cc2C)cc1 [luseogliflozin hydrate]
[1]
  IC50 level showing the inhibition activity, compared with canagliflozin: similar
[2]
  maximum blood concentration (Cmax) in the minimum dosage amount, relative to that of canagliflozin: approximately 1/10
[3]; 10 mg/kg/day as luseogliflozin, two weeks
  increase of retinal albumin amount (retinal vascular permeability): significantly ameliorated to the control group level

## CCc1ccc(Cc2ccc3c(c2)[C@]2(OC3)O[C@H](CO)[C@@H](O)[C@H](O)[C@H]2O)cc1 [tofogliflozin hydrate]
[1]
  IC50 level showing the inhibition activity, compared with canagliflozin: similar
[2]
  maximum blood concentration (Cmax) in the minimum dosage amount, relative to that of canagliflozin: approximately 1/10

## Cc1ccc([C@@H]2O[C@H](CO)[C@@H](O)[C@H](O)[C@H]2O)cc1Cc1ccc(-c2ccc(F)cc2)s1 [canagliflozin hydrate]
[4]; Case 2, 100 mg/day as canagliflozin
  blood sugar control: no change in blood sugar control
[4]; Case 2, 100 mg/day as canagliflozin, 8.0 before administration, hydrate
  HbA1 after administration: 8.4 and 8.1 and 7.8
[4]; Case 2, 100 mg/day as canagliflozin, about 5 months after initiation of administration
  OCT findings: decrease of macular retinal thickness, cyst reduction, and significant amelioration of laminar structure
[4]; Case 2, 100 mg/day as canagliflozin, from 0.4
  vision, right eye, after administration: 0.5
[4]; Case 2, 100 mg/day as canagliflozin, from 0.7
  vision, left eye, after administration: 1.2
[5]; 0.001 mg/kg/day
  blood sugar: no significant decrease
[5]; 0.01 mg/kg/day, hydrate
  blood sugar: no significant blood sugar decrease
[5]; 0.1 mg/kg/day
  blood sugar: no significant decrease
[5]; 3 mg/kg/day, vs non-administered group (FIGS. 6 and 7)
  fructosamine level which is an index for fasting blood sugar and average blood sugar levels: significantly decreased
[3]; 0.01 mg/kg/day as canagliflozin, 2 weeks
  increase of retinal albumin amount (retinal vascular permeability): significantly ameliorated to the control group level
[3]; 3 mg/kg/day as canagliflozin, 2 weeks
  increase of retinal albumin amount (retinal vascular permeability): significantly ameliorated to the control group level

## OC[C@H]1O[C@@H](c2ccc(Cl)c(Cc3ccc(O[C@H]4CCOC4)cc3)c2)[C@H](O)[C@@H](O)[C@@H]1O [empagliflozin]
[1]
  IC50 level showing the inhibition activity, compared with canagliflozin: similar
[2]
  maximum blood concentration (Cmax) in the minimum dosage amount, relative to that of canagliflozin: approximately 1/10

## CCOc1ccc(Cc2cc([C@@H]3O[C@H](CO)[C@@H](O)[C@H](O)[C@H]3O)ccc2Cl)cc1 [dapagliflozin propylene glycol hydrate]
[4]; Case 1, 2.5 mg/day as dapagliflozin, 6.7 before administration
  HbA1 after administration: 6.6
[4]; Case 1, 2.5 mg/day as dapagliflozin, did not change
  vision, left eye, after administration: 1.2
[4]; Case 1, 2.5 mg/day as dapagliflozin, from 0.7
  vision, right eye, after administration: 0.8
[4]; Case 3, 2.5 mg/day as dapagliflozin, from 0.15
  vision after administration: 0.2
[4]; Case 3, 2.5 mg/day as dapagliflozin, from 8.7
  HbA1c after administration: 8.0
[4]; Case 4, 2.5 mg/day as dapagliflozin, did not change due to severe retinopathy
  vision: 0.1
[4]; Case 4, 2.5 mg/day as dapagliflozin, from 5.9, no change
  HbA1c after administration: 6.1%

## OC[C@H]1O[C@@H](c2ccc(F)c(Cc3cc4ccccc4s3)c2)[C@H](O)[C@@H](O)[C@@H]1O [ipragliflozin L-proline]
[1]
  IC50 level showing the inhibition activity, compared with canagliflozin: similar
